According to patent publication US20110144079A1, “ANTIMICROBIAL SYSTEM” (priority 2008, published 2011):
Read-outs that look alike come from different tables or passages of the source. Marks after values point to notes of the source that are not given here.

Tests used:
[1] = tested on: MRSA; experiment: Broth microdilution MIC/MBC; type: cell-based, methicillin-resistant S. aureus; conditions: Staphylococcus aureus
In short: (§1)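 NCCLS broth microdilution; MHB; salts 0.0000625–1% w/v, 2-fold; final inoculum 2×10^5 CFU/ml; 24 h, 37 °C, aerobic. MBC = 99.9% kill on MHA subculture of no-growth wells, 24 h.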

[2] = tested on: Methicillin Resistant Staphylococcus Aureus (MRSA); experiment: Kill kinetics, planktonic cell cultures; type: cell-based; conditions: 1379 μM
Description: (§2) The kill kinetic data is provided in terms of the measured colony forming units per millilitre (CFU/mL) values, and is also provided graphically in FIGS. 9-11.

[3] = tested on: Escherichia Coli; experiment: Kill kinetics, planktonic cell cultures; type: cell-based; conditions: 2000 μM
Description: as §2

[4] = tested on: Staphylococcus Epidermidis; experiment: Kill kinetics, planktonic cell cultures; type: cell-based; conditions: 644 μM
Description: as §2

[5] = tested on: K. aerogenes NCTC 7427; experiment: Broth microdilution MIC/MBC; type: cell-based; conditions: Klebsiella aerogenes, NCTC7427
In short: as §1

[6] = tested on: P. aeruginosa PA01; experiment: Broth microdilution MIC/MBC; type: cell-based; conditions: for MIC: P. aeruginosa PA01, 24 h at 37° C.
In short: as §1

[7] = tested on: E. coli NCTC 8196; experiment: Broth microdilution MIC/MBC; type: cell-based; conditions: Escherichia coli, NCTC8196
In short: as §1

[8] = tested on: S. epidermidis ATCC 12228; experiment: Broth microdilution MIC/MBC; type: cell-based; conditions: Staphylococcus epidermidis, ATCC12228
In short: as §1

[9] = tested on: S. epidermidis ATCC 35984; experiment: Broth microdilution MIC/MBC; type: cell-based; conditions: Staphylococcus epidermidis
In short: as §1

[10] = tested on: S. aureus ATCC 29213; experiment: Broth microdilution MIC/MBC; type: cell-based; conditions: Staphylococcus aureus, ATCC29213
In short: as §1

[11] = tested on: B. cenocepacia J2315; experiment: Broth microdilution MIC/MBC; type: cell-based; conditions: Burkholderia cenocepacia
In short: as §1

[12] = tested on: P. mirabilis NCTC 12442; experiment: Broth microdilution MIC/MBC; type: cell-based; conditions: Proteus mirabilis, NCTC12442
In short: as §1

[13] = tested on: C. tropicalis NCTC 7393; experiment: Broth microdilution MIC/MBC; type: cell-based; conditions: Candida tropicalis, NCTC7393
In short: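 Cultures grown overnight in MHB were standardised by OD550 to 1×10^8 CFU/ml, then diluted to a final 2×10^5 CFU/ml. This inoculum was added to imidazolium salt dilutions spanning 0.0000625–1% w/v in MHB and incubated aerobically for 24 h at 37 °C. Wells without growth were plated on MHA for 24 h to find the MBC.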

[14] = tested on: E-MRSA 15; experiment: Broth microdilution MIC/MBC; type: cell-based
In short: as §1

SMILES: CCCCCCCCCCn1cc[n+](C)c1.[Cl-] [C10MIMCl, 1-decyl-3-methylimidazolium chloride]
- MBC ([1]; 99.9% killing): 643 µM
- MIC ([1]; 24 h at 37° C.): 160 µM
- colony forming units per millilitre ([2]; 0 Minutes): 1.10 × 10^8 CFU/mL
- colony forming units per millilitre ([2]; 5 Minutes): 3.67 × 10^7 CFU/mL
- colony forming units per millilitre ([2]; 10 Minutes): 5.00 × 10^6 CFU/mL
- colony forming units per millilitre ([2]; 20 Minutes): 5.75 × 10^4 CFU/mL
- colony forming units per millilitre ([2]; 30 Minutes): 6.67 × 10^2 CFU/mL
- colony forming units per millilitre ([2]; 45 Minutes): 8.33 × 10^1 CFU/mL
- colony forming units per millilitre ([3]; 0 Minutes): 6.25 × 10^7 CFU/mL
- colony forming units per millilitre ([3]; 5 Minutes): 3.33 × 10^2 CFU/mL
- colony forming units per millilitre ([3]; 10 Minutes): 0.00 CFU/mL
- colony forming units per millilitre ([3]; 20 Minutes): 0.00 CFU/mL
- colony forming units per millilitre ([3]; 30 Minutes): 0.00 CFU/mL
- colony forming units per millilitre ([3]; 45 Minutes): 0.00 CFU/mL
- colony forming units per millilitre ([4]; 0 Minutes): 8.96 × 10^7 CFU/mL
- colony forming units per millilitre ([4]; 5 Minutes): 8.58 × 10^5 CFU/mL
- colony forming units per millilitre ([4]; 10 Minutes): 6.92 × 10^4 CFU/mL
- colony forming units per millilitre ([4]; 20 Minutes): 1.06 × 10^4 CFU/mL
- colony forming units per millilitre ([4]; 30 Minutes): 2.42 × 10^3 CFU/mL
- colony forming units per millilitre ([4]; 45 Minutes): 9.17 × 10^2 CFU/mL
- MBC ([5]; K. aerogenes NCTC 7427, 99.9% killing): 1290 µM
- MIC ([5]; K. aerogenes NCTC 7427, 24 h at 37° C.): 643 µM
- MIC ([6]; listed as 1-alkyl-3-methylimidazolium chlorides 10): 2415* μM
- MIC ([6]; Pseudomonas aeruginosa, PA01, 24 h, read-out: MIC): > 1290 µM
- MBC ([6]; Pseudomonas aeruginosa, P. aeruginosa PA01, 99.9% killing): > 1290 µM
- MBC ([7]; E. coli NCTC 8196, 99.9% killing): 1290 µM
- MIC ([7]; E. coli NCTC 8196, 24 h at 37° C.): 321 µM
- MBC ([8]; S. epidermidis ATCC 12228, 99.9% killing): 644 µM
- MIC ([8]; S. epidermidis ATCC 12228, 24 h at 37° C.): 40 µM
- MIC ([9]; ATCC35984, 24 h, S. epidermidis ATCC 35984, 24 h at 37° C.): 40 µM
- MBC ([9]; ATCC35984, S. epidermidis ATCC 35984, 99.9% killing): 160 µM
- MBC ([10]; S. aureus ATCC 29213, 99.9% killing): 643 µM
- MIC ([10]; S. aureus ATCC 29213, 24 h at 37° C.): 40 µM
- MBC ([11]; B. cenocepacia J2315, 99.9% killing): 1290 µM
- MIC ([11]; B. cenocepacia J2315, 24 h at 37° C.): 1290 µM
- MBC ([12]; P. mirabilis NCTC 12442, 99.9% killing): 1290 µM
- MIC ([12]; P. mirabilis NCTC 12442, 24 h at 37° C.): 1290 µM
- MBC ([13]; C. tropicalis NCTC 7393, 99.9% killing): 321 µM
- MIC ([13]; C. tropicalis NCTC 7393, 24 h at 37° C.): 321 µM
- MBC ([14]; E-MRSA 15, 99.9% killing): 321 µM
- MIC ([14]; E-MRSA 15, 24 h at 37° C.): 40 µM
